The values below come from US20150198597A1, “Method for monitoring PARP activity in cells by PARP activation” (Stichting Het Nederlands Kanker Instituut, priority 2012, published 2015).

The test system of the assay is PARP. The settings on record: PBMCs; H2O2 at 0, 12.5, 50, 200 and 800 μM; treated and maintained on ice (0-4° Celsius) for 60 minutes; FIG. 3B.

Description: Cells were treated on ice (at 0-4° Celsius) and cells were maintained on ice (at 0-4° Celsius) for 60 minutes. Cells were immediately lysed thereafter and PAR levels were measured by using the Trevigen® PARP Pharmacodynamic assay II. The PAR levels (y-axis) are plotted against the H2O2 concentration (x-axis).
The assay was used to quantify the amount of PAR in peripheral blood mononuclear cells (PBMC).
Peripheral Blood Mononuclear Cells (PBMCs) were prepared by drawing 8 ml blood from a subject in a BD vacutainer CPT-citrate tube (RT) at the clinic. Invert the tubes three times to mix the anti-coagulant (1 ml) with the blood and keep the tube at room temperature (RT). Centrifuge for 25 minutes at 1500×g at RT, and invert the tubes three times. Pour the upper layer into a 50 ml Falcon tube on ice and incubate on ice for 5 minutes. Adjust the total volume to 50 ml with ice-cold PBS and centrifuge 10 minutes at 330×g at 4° Celsius. Decant the supernatant and place the tube inverted on filter paper for 2 seconds. Re-suspend the pellet in 10 ml ice-cold PBS. Count the PBMCs with a hema-cytometer and centrifuge 10 minutes at 330×g at 4° Celsius. Re-suspend the pellet at 2×10exp6 PBMC/500 μl in PBS and transfer to a pre-chilled 2.0 ml tube on ice.
For example, cells are suspended at 2×10E6 PBMC/500 μl culture PBS. […]

With `OO` [H2O2, hydrogen peroxide], the PAR levels entry is “Higher PAR levels were found with increasing H2O2 treatment concentration”.
